Like-named read-outs stand apart in the source and are kept apart here.
What was measured:
Anti-C60 = details: measured inhibition of bovine thyroglobulin-fullerene conjugate binding by test compound; cited from earlier work
Protease = target: T1, Protease (Human immunodeficiency virus type 1 group M subtype B, UniProt P04585); details: FDA-approved drugs; cited from earlier work
T1 construct: Protease

[1] = in vivo; cited from earlier work
M184V (3TC resistant) = details: cited from earlier work
HIV-1 (wild type) = details: FDA-approved drugs; cited from earlier work
[2] = target: T2, recombinant HIV-1 p66/51 reverse transcriptase (Human immunodeficiency virus type 1 group M subtype B, UniProt P04585); test: Inhibition of p66/51 reverse transcriptase; type: biochemical
T2 construct: recombinant HIV-1 p66/51 reverse transcriptase

RT = RT (Human immunodeficiency virus type 1 group M subtype B, UniProt P04585); details: FDA-approved drugs; cited from earlier work
H9 cells = details: cited from earlier work
Vero cells = details: cited from earlier work
[3] = system: CEM (human lymphoblastoid) cells; details: cited from earlier work
[4] = cited from earlier work
[5] = M184V, common RT mutant, FDA-approved drugs, read-out: EC50

D3-carboxyfullerene
Kd (Anti-C60): 0.038 mg/mL

CC(C)(C)NC(=O)[C@@H]1C[C@@H]2CCCC[C@@H]2CN1C[C@@H](O)[C@H](Cc1ccccc1)NC(=O)[C@H](CC(N)=O)NC(=O)c1ccc2ccccc2n1 [Saquinavir]
Protease Inhibitor (Protease): yes | Oral Bioavailability [1]: ˜4%

CC(C)c1nc(CN(C)C(=O)N[C@H](C(=O)N[C@@H](Cc2ccccc2)C[C@H](O)[C@H](Cc2ccccc2)NC(=O)OCc2cncs2)C(C)C)cs1 [Ritonavir]
EC50 (M184V (3TC resistant); [5]): 800 nM | EC50 (HIV-1 (wild type)): 45 nM | Protease Inhibitor (Protease): yes | Oral Bioavailability [1]: ˜78%

Cc1c(O)cccc1C(=O)N[C@@H](CSc1ccccc1)[C@H](O)CN1C[C@H]2CCCC[C@H]2C[C@H]1C(=O)NC(C)(C)C [Nelfinavir]
EC50 (M184V (3TC resistant); [5]): 400 nM | Protease Inhibitor (Protease): yes | Oral Bioavailability [1]: 52%

Nc1ccn([C@@H]2CS[C@H](CO)O2)c(=O)n1 [Compound 3TC, 3TC]
EC50 (M184V (3TC resistant); [5]): > 100000 nM | EC50 (M184V (3TC resistant); text b84, unit inferred, read-out: activity against M184V): > 100000 nM | EC50 (HIV-1 (wild type)): 180 nM

Cc1cn([C@H]2C[C@H](N=[N+]=[N-])[C@@H](CO)O2)c(=O)[nH]c1=O [AZT]
IC50 ([2]; poly (rA)n oligo (dT)12 template primer, text b87, unit inferred, read-out: IC50 against RT): 21 nM | EC50 (M184V (3TC resistant); [5]): 10 nM | EC50 (HIV-1 (wild type)): 50 nM | RT Inhibitor (RT): yes | cytotoxicity (in words) (H9 cells): cytotoxic | cytotoxicity (in words) (Vero cells): cytotoxic | cytotoxicity (in words) [3]: cytotoxic

CC(C)CN(C[C@@H](O)[C@H](Cc1ccccc1)NC(=O)O[C@H]1CCOC1)S(=O)(=O)c1ccc(N)cc1 [Amprenavir]
EC50 (M184V (3TC resistant); [5]): 500 nM | EC50 (HIV-1 (wild type)): 54 nM | Protease Inhibitor (Protease): yes

Cc1cn([C@H]2C[C@H](N=[N+]=[N-])[C@@H](CO[P@](=O)(O)O[P@](=O)(O)OP(=O)(O)O)O2)c(=O)[nH]c1=O [AZTTP]
inhibition at 0.001 µM ([2]; 0.001 μM): 8% | inhibition at 0.01 µM ([2]; 0.01 μM): 35.7% | inhibition at 0.1 µM ([2]; 0.1 μM): 72.7% | inhibition at 1 µM ([2]; 1 μM): 97% | inhibition at 10 µM ([2]; 10 μM): 99.6% | 1C 90 ([2]; p66/51 1 unit/rxn, (rA)n.(dT)12-18): 0.27 µM | IC50 ([2]; p66/51 1 unit/rxn, (rA)n.(dT)12-18, read-out: 1C 50): 21 nM

C3-carboxyfullerene
Kd (Anti-C60): 0.25 mg/mL

CC(C)(C)NC(=O)[C@@H]1CN(Cc2cccnc2)CCN1C[C@@H](O)C[C@@H](Cc1ccccc1)C(=O)N[C@H]1c2ccccc2C[C@H]1O [Indinavir]
EC50 (HIV-1 (wild type)): ~100 nM | Protease Inhibitor (Protease): yes

c12c3c4c5c1c1c6c7c2c2c8c3c3c9c4c4c%10c5c5c1c1c6c6c%11c7c2c2c7c8c3c3c8c9c4c4c9c%10c5c5c1c1c6c6c%11c2c2c7c3c3c8c4c4c9c5c1c1c6c2c3c41 [unmodified C60, C60]
toxicity in vivo (in words) [4]: non toxic even at high doses

fullerenol [C]
Kd (Anti-C60): 0.75 mg/mL
